The source of these data is PubChem BioAssay (NCI).

Among the test systems are DLD-1 colon; DMS 114 small cell lung; DMS 273 small cell lung; HCT-116 colon; HOP-18 NSCLC; KM20L2 colon; LXFL 529 NSCLC; SK-MEL-2 melanoma; MCF7 breast; PC-3 prostate.
Holding throughout (assay): growth of human tumour cells (NCI), 48 h

In brackets after ≈: the same amount, converted by molar mass. Several values for one entry are separate records, joined by “and”; a condition that tells them apart may be missing. Equal entries are not always repeated.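 Compound exposure: 48 hours, 5 concentrations, 96-well plates. GI50 marks 50% less growth. TGI is the concentration that stops growth completely.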 Some results are limits rather than exact numbers.

As to `C#CC1(O)CCC2[C@@H]3CCc4cc(Oc5nc(F)nc(-c6c7ccccc7c(SCC)n6CCC)n5)ccc4C3CC[C@@]21C` (some centres undefined), the TGI with DLD-1 colon, in the assay on DMS 114 small cell lung, in the assay with DMS 273 small cell lung, with HCT-116 colon, in the assay with HOP-18 NSCLC and in the assay with KM20L2 colon was over 100 µM in each case. Further, the TGI in the assay on LXFL 529 NSCLC and with SK-MEL-2 melanoma was over 100 µM throughout.
For the compound `Cc1c(N)nc(C(CC(N)=O)NCC(N)C(N)=O)nc1C(=O)NC(C(=O)NC(C)C(O)C(C)C(=O)NC(C(=O)NCCc1nc(-c2nc(C(=O)NCCCNC(C)c3ccccc3)cs2)cs1)C(C)O)C(OC1OC(CO)C(O)C(O)C1OC1OC(CO)C(O)C(OC(N)=O)C1O)c1cnc[nH]1` (centres undefined), the TGI was 50 µM with DLD-1 colon; 8.75 µM in the assay with DMS 114 small cell lung; 4.95 µM with DMS 273 small cell lung; 49.4 µM and > 100 µM in the assay on HCT-116 colon; 46.8 µM with HOP-18 NSCLC; 50 µM with KM20L2 colon. Also, the TGI was 50 µM with LXFL 529 NSCLC; over 100 µM in the assay on MCF7 breast; over 100 µM with PC-3 prostate; 30.6 µM and > 100 µM in the assay on SK-MEL-2 melanoma. The values for the GI50 with HCT-116 colon, in the assay with PC-3 prostate and in the assay with SK-MEL-2 melanoma were 1.76 µM, 38.8 µM and 66.5 µM, respectively.
On to `O=S(=O)(N=NC=C1c2ccccc2N(O)c2ccccc21)c1ccc(Cl)cc1`, for which the TGI in the assay on DLD-1 colon, with DMS 114 small cell lung, with DMS 273 small cell lung, in the assay on HCT-116 colon, in the assay on HOP-18 NSCLC and in the assay on KM20L2 colon was over 100 µM in each case. Also, the TGI in the assay on LXFL 529 NSCLC and with SK-MEL-2 melanoma was over 100 µM throughout.
As to `COc1ccc2c(c1)NC1(O)c3ccccc3C(=O)C21O` (centres undefined), the TGI in the assay with DLD-1 colon, in the assay with DMS 114 small cell lung, with DMS 273 small cell lung, in the assay on HCT-116 colon, with HOP-18 NSCLC and with KM20L2 colon was over 100 µM each time. The same compound showed a TGI with LXFL 529 NSCLC of over 100 µM.
Regarding `CCCCc1c2cnccc2c(CCCC)c2c1[nH]c1ccccc12`, the TGI is over 100 µM with DLD-1 colon; 18.3 µM in the assay with DMS 114 small cell lung; 27.9 µM with DMS 273 small cell lung; 18.1 µM in the assay on HCT-116 colon; 24.8 µM in the assay with HOP-18 NSCLC; over 100 µM with KM20L2 colon. For the same compound, the results for the TGI with LXFL 529 NSCLC and with SK-MEL-2 melanoma were 25.6 µM and 30.5 µM, respectively.
As to `OC12c3ccccc3C1CCCCCCCCCC21OCCO1` (centres undefined), the TGI in the assay on DMS 114 small cell lung, with DMS 273 small cell lung, with HCT-116 colon, in the assay on HOP-18 NSCLC, in the assay with KM20L2 colon and in the assay with LXFL 529 NSCLC was over 100 µM in each case. In addition, in the assay with SK-MEL-2 melanoma, the TGI was over 100 µM.
As to `CC(C)c1cccc(O)c(=O)c1`, the TGI in the assay with DLD-1 colon was over 100 µM; with DMS 114 small cell lung it was 16 µM; in the assay with DMS 273 small cell lung it was over 48.4 µM; in the assay on HCT-116 colon, > 75 µg/mL and > 40.2 µM; in the assay on HOP-18 NSCLC, over 100 µM; in the assay with KM20L2 colon, over 100 µM. The TGI with LXFL 529 NSCLC was over 100 µM; in the assay with MCF7 breast, 5.08 µg/mL; with PC-3 prostate, over 75 µg/mL; in the assay with SK-MEL-2 melanoma it was 32.4 µg/mL and 95.7 µM. Also, the GI50 was 3.81 µg/mL in the assay on HCT-116 colon, 1.46 µg/mL (≈ 8.87 µM) in the assay with MCF7 breast, 2.6 µg/mL with PC-3 prostate and 6.86 µg/mL in the assay with SK-MEL-2 melanoma.
In the case of `COC(=O)C1CC(OC(C)=O)C=C2C(=O)CCC21` (centres undefined), the TGI came out at 40.7 µM in the assay on DLD-1 colon; 30.8 µM with DMS 114 small cell lung; 43.8 µM in the assay with DMS 273 small cell lung; 29.8 µM in the assay on HCT-116 colon; 64.3 µM in the assay with HOP-18 NSCLC; 70.1 µM with KM20L2 colon. Besides, the TGI turned out to be 39.3 µM in the assay on LXFL 529 NSCLC and 79.9 µM with SK-MEL-2 melanoma.
For the compound `COC(=O)C(CC(=O)Nc1ccc(Cl)c(Cl)c1)C(=O)C(=O)Nc1ccc(Cl)c(Cl)c1` (centres undefined), the TGI in the assay on DMS 114 small cell lung, with DMS 273 small cell lung, in the assay with HCT-116 colon, with HOP-18 NSCLC, in the assay on KM20L2 colon and in the assay with LXFL 529 NSCLC was over 100 µM throughout. For the same compound, the TGI in the assay with SK-MEL-2 melanoma was over 100 µM.
`Cc1cccc(C)c1N1C(=O)C(=O)C(c2nc3ccccc3s2)/C(=N/NC(=O)c2ccccc2O)C1=O` (centres undefined): the TGI with DLD-1 colon was over 100 µM; in the assay with DMS 114 small cell lung it was 60.9 µM; with DMS 273 small cell lung, 22.5 µM; in the assay with HCT-116 colon, over 79.5 µM; in the assay on HOP-18 NSCLC, 88.6 µM; with KM20L2 colon, over 100 µM. The TGI in the assay with LXFL 529 NSCLC and in the assay with SK-MEL-2 melanoma was over 100 µM each time.
`CO[C@H]1C[C@](C)(O)Cc2cc3c(c(O)c21)C(=O)c1c(O)cc2c(c1C3=O)O[C@@H]1O[C@@]2(C)[C@H](O)[C@@H](N(C)C)[C@@H]1O`: the GI50 in the assay on DLD-1 colon is 1.67 µM; with DMS 114 small cell lung, 0.533 µM; with DMS 273 small cell lung it was 0.188 µM; in the assay with HCT-116 colon, 1.13 µM; in the assay with HOP-18 NSCLC it was 1.29 µM; in the assay with KM20L2 colon, 1.74 µM. Moreover, the TGI was 4.08 µM and 22.3 µM in the assay with DLD-1 colon; 2.32 µM and 1.71 µM in the assay on DMS 114 small cell lung; 2.79 µM and 3.32 µM in the assay with DMS 273 small cell lung; 2.51 µM and 3.03 µM in the assay with HCT-116 colon; 4.3 µM and 8.6 µM in the assay with HOP-18 NSCLC; 5.01 µM and 17.2 µM in the assay with KM20L2 colon. The TGI with LXFL 529 NSCLC is 7.33 µM; with MCF7 breast, 8.86 µM; with PC-3 prostate it was 15.9 µM; in the assay with SK-MEL-2 melanoma it was 5.09 µM and 5.82 µM.
On to `N#CC(C#N)=Cc1ccc(CP(=O)(O)O)cc1`, for which the TGI with DLD-1 colon, with DMS 114 small cell lung, in the assay with DMS 273 small cell lung, in the assay with HCT-116 colon, in the assay on HOP-18 NSCLC and in the assay on KM20L2 colon was over 100 µM in each case. In addition, the TGI in the assay with LXFL 529 NSCLC and in the assay on SK-MEL-2 melanoma was over 100 µM each time.
In the case of `Cc1ccc2nc3cc(C)c(=O)cc-3sc2c1`, the TGI with DLD-1 colon, in the assay with DMS 114 small cell lung, with DMS 273 small cell lung, in the assay with HCT-116 colon, in the assay with HOP-18 NSCLC and in the assay with KM20L2 colon was over 100 µM throughout. Moreover, the TGI with LXFL 529 NSCLC and with SK-MEL-2 melanoma was over 100 µM throughout.
Turning to `Cc1ccc(S(=O)(=O)c2ccc(C)cc2[N+](=O)[O-])cc1`, the TGI with DLD-1 colon was over 100 µM; with DMS 114 small cell lung, 73.3 µM; in the assay with DMS 273 small cell lung, over 100 µM; in the assay on HCT-116 colon it was over 100 µM; in the assay with HOP-18 NSCLC it was over 100 µM; in the assay on KM20L2 colon, over 100 µM. Also, the TGI in the assay on LXFL 529 NSCLC and in the assay on SK-MEL-2 melanoma was over 100 µM in each case.
As for `CCn1c2c(c3ccccc31)[C@@H](c1ccc(Cl)cc1)CC1C(=O)N(c3ccccc3)C(=O)C21` (some centres undefined), the TGI with DLD-1 colon, in the assay on DMS 114 small cell lung, in the assay on DMS 273 small cell lung, in the assay with HCT-116 colon, in the assay on HOP-18 NSCLC and in the assay with KM20L2 colon was over 100 µM each time. Also, the TGI in the assay on LXFL 529 NSCLC and with SK-MEL-2 melanoma was over 100 µM in each case.
As for `C1CN(P2(N3CC3)=NP(N3CC3)(N3CC3)=NP(N3CC3)(N3CC3)=N2)CCO1` (centres undefined), the TGI in the assay on DLD-1 colon, in the assay on DMS 114 small cell lung, in the assay with DMS 273 small cell lung, in the assay on HCT-116 colon, with HOP-18 NSCLC and with KM20L2 colon was over 100 µM in each case. The TGI with LXFL 529 NSCLC and in the assay with SK-MEL-2 melanoma was over 100 µM each time.
